pIC50: −log10 of the molar value.

The assay deals with Acetylcholinesterase (Electrophorus electricus, UniProt O42275). Kind of assay: Inhibition of electric eel AChE by modified Ellman method.
Sequence of Acetylcholinesterase (O42275 whole entry): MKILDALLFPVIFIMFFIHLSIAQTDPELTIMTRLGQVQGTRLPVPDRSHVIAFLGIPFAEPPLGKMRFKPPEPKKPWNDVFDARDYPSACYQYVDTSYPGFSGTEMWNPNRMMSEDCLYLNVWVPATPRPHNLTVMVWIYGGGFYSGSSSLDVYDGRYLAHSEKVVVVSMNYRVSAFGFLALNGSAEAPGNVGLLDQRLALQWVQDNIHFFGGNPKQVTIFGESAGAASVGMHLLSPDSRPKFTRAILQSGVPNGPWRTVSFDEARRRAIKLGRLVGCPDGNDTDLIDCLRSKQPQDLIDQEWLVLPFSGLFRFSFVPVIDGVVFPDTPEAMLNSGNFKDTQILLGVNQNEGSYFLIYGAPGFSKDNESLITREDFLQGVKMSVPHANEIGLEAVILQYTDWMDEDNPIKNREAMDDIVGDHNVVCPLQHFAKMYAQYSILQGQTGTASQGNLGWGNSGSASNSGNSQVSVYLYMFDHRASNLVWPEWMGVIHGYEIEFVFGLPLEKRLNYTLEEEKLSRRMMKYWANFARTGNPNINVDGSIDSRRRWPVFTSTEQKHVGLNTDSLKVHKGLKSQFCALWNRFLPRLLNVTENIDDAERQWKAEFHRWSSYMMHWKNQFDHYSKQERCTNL
The pIC50 is the IC50 on a negative log10 scale, so that one unit is a factor of ten. `O=C1/C(=C/c2ccc(Cl)cc2Cl)CN2CC13[C@@H](c1ccc(Cl)cc1Cl)C1CCCN1C31C(=O)c3ccccc3C21O` (stereo not given in full): the pIC50 was 4.92.
In the case of `O=C1/C(=C/c2cccc([N+](=O)[O-])c2)CN2CC13[C@@H](c1cccc([N+](=O)[O-])c1)C1CCCN1C31C(=O)c3ccccc3C21O` (stereo not given in full), the pIC50 was 5.21.
In the case of `O=C1/C(=C/c2cccc3ccccc23)CN2CC13[C@@H](c1cccc4ccccc14)C1CCCN1C31C(=O)c3ccccc3C21O` (stereo not given in full) it was 5.67.
`O=C1/C(=C/c2ccc(F)cc2)CN2CC13[C@@H](c1ccc(F)cc1)C1CCCN1C31C(=O)c3ccccc3C21O` (stereo not given in full): the pIC50 was 4.95.
For the compound `O=C1/C(=C/c2ccccc2Cl)CN2CC13[C@@H](c1ccccc1Cl)C1CCCN1C31C(=O)c3ccccc3C21O` (stereo not given in full), the pIC50 is 5.29.
`O=C1/C(=C/c2ccccc2)CN2CC13[C@@H](c1ccccc1)C1CCCN1C31C(=O)c3ccccc3C21O` (stereo not given in full) had a pIC50 of 5.16.
In the case of `O=C1/C(=C/c2ccc(Br)cc2)CN2CC13[C@@H](c1ccc(Br)cc1)C1CCCN1C31C(=O)c3ccccc3C21O` (stereo not given in full) it was 5.03; in that of `O=C1/C(=C/c2ccc(Cl)cc2)CN2CC13[C@@H](c1ccc(Cl)cc1)C1CCCN1C31C(=O)c3ccccc3C21O` (stereo not given in full), 4.95.
In the case of `Cc1ccc(/C=C2\CN3CC4(C2=O)[C@@H](c2ccc(C)cc2)C2CCCN2C42C(=O)c4ccccc4C32O)cc1` (stereo not given in full) it was 6.14; in that of `Cc1ccccc1/C=C1\CN2CC3(C1=O)[C@@H](c1ccccc1C)C1CCCN1C31C(=O)c3ccccc3C21O` (stereo not given in full), 5.92.

The record behind these values is ChEMBL document CHEMBL1795302, “Synthesis and discovery of novel hexacyclic cage compounds as inhibitors of acetylcholinesterase” (Bioorg Med Chem Lett, 2011).
